These results are taken from patent US10906940B2, “Antimicrobial peptides, pharmaceutical compositions, and methods of use thereof” (priority 2014, dated 2021).

In brackets after ≈: the same amount, converted by molar mass. Where two headings read alike, the source gives them in different places. Where only a bound is given, the exact number is not on record here.

One assay has as its system E. faecalis ATCC 29212. Kind of assay: microbe, parasite or virus in culture. Particulars: Enterococcus faecalis, ATCC29212.
In assay [1] the test system is Listeria monocytogenes R2-583. Kind of assay: microbe, parasite or virus in culture. Particulars: R2583.
A further assay has as its system S. aureus ATCC 29213. The assay can be described thus: microbe, parasite or virus in culture. Particulars: Staphylococcus aureus, ATCC29213.
A further assay has as its system E. faecalis BAA-2365. Kind of assay: microbe, parasite or virus in culture. Particulars: Enterococcus faecalis, BAA2365. Format: cell-based, Enterococcus faecalis. From the text: (§1) The same MIC assay as in Example 6 was used to determine the antimicrobial susceptibility of Compound A, L-form (FIG. 15), and several variants. One variant was Compound A, D-form, with D-Lysine at position 7. Compound B is a variant in the fatty acid chain, with a fatty acid chain composition of C15H29O, and having D-Lys at position 7. Compound C is a variant in the fatty acid chain with a fatty acid chain composition of C11H21O, and having D-Lys at position 7. Variant D is a sequence variant with Phe at position 6 of the cyclic peptide, and having D-Lys at position 7. All variants were chemically synthesized.

For a further assay, the system named is E. faecalis ATCC 51575. The assay can be described thus: microbe, parasite or virus in culture. Format: cell-based, Enterococcus faecalis. The following applies: Enterococcus faecalis, ATCC51575.
Description: as §1

In a further assay the test system is E. faecium ATCC 700221. Kind of assay: microbe, parasite or virus in culture. It counts as cell-based. The following applies: Enterococcus faecium, ATCC700221.
Description: as §1

The subject of a further assay is E. faecium ATCC 2320. Kind of assay: microbe, parasite or virus in culture. The following applies: Enterococcus faecium, ATCC2320. It counts as cell-based.
Description: as §1

Another assay deals with E. faecium BAA-2318. Kind of assay: microbe, parasite or virus in culture. Format: cell-based. The following applies: Enterococcus faecium, BAA2318.
Description: as §1

The subject of the next assay is S. aureus 6. Kind of assay: microbe, parasite or virus in culture. Format: cell-based, Staphylococcus aureus.
Description: as §1

The next assay has as its system S. aureus 14. Kind of assay: microbe, parasite or virus in culture. It counts as cell-based, Staphylococcus aureus.
Description: as §1

Another assay deals with S. aureus 4. Kind of assay: microbe, parasite or virus in culture. Format: cell-based, Staphylococcus aureus.
Description: as §1

Another assay deals with S. aureus 8. The assay can be described thus: microbe, parasite or virus in culture. Format: cell-based, Staphylococcus aureus.
Description: as §1

The subject of the next assay is S. aureus 2. The assay can be described thus: microbe, parasite or virus in culture. It counts as cell-based, Staphylococcus aureus.
Description: as §1

The subject of another assay is S. aureus 19. The assay can be described thus: microbe, parasite or virus in culture. Format: cell-based, Staphylococcus aureus.
Description: as §1

In the next assay the test system is S. aureus 10. Kind of assay: microbe, parasite or virus in culture. Format: cell-based, Staphylococcus aureus.
Description: as §1

A further assay has as its system S. aureus 12. Kind of assay: microbe, parasite or virus in culture. It counts as cell-based, Staphylococcus aureus.
Description: as §1

For another assay, the system named is S. aureus ATCC25923. The assay can be described thus: microbe, parasite or virus in culture. Particulars: Staphylococcus aureus.
Assay [2] concerns Klebsiella pneumoniae SBJ-9483. The following applies: Klebsiella pneumoniae SBJ-9483 (clinical isolate).
The test system of assay [3] is Enterobacter cloacae SBJ-7612. The following applies: Enterobacter cloacae SBJ-7612 (clinical isolate).
Assay [4] has as its system Klebsiella pneumoniae SBJ-9388. The following applies: Klebsiella pneumoniae SBJ-9388 (clinical isolate).
For assay [5], the system named is Enterobacter cloacae SBJ-9222. The following applies: Enterobacter cloacae SBJ-9222 (clinical isolate).
Assay [6] concerns Enterobacter cloacae SBJ-9395. Format: cell-based.
Description: as §1

The subject of assay [7] is Serratia marcescens SAMN04022954. It counts as cell-based. Particulars: Serratia marcescens SAMN04022954.
Description: as §1

The subject of assay [8] is Serratia marcescens SBJ-8283. Format: cell-based.
Description: as §1

Assay [9] deals with Serratia marcescens SAMN 04276915. It counts as cell-based. Particulars: Serratia marcescens SAMN 04276915.
Description: as §1

For assay [10], the system named is Serratia marcescens SAMN 04276914. Format: cell-based. Particulars: Serratia marcescens SAMN 04276914.
Description: as §1

Assay [11] has as its system Serratia marcescens SBJ-9047. It counts as cell-based.
Description: as §1

The test system of the next assay is P. aeruginosa ATCC-27853. Particulars: P. aeruginosa ATCC-27853.
The next assay has as its system Salmonella Newport #17. Particulars: Salmonella Newport #17.
Assay [12] relates to Klebsiella pneumoniae SBJ-9149. The following applies: Klebsiella pneumoniae SBJ-9149 (clinical isolate).
Assay [13] relates to Enterobacter sakazakii E784. The following applies: Enterobacter sakazakii E784.
The next assay relates to E. coli ATCC 25853. The following applies: E. coli ATCC 25853.
Assay [14] relates to Salmonella enterica serovar Montevideo strain 29N. Kind of assay: Spot-on-lawn bioactivity assay (zone of inhibition). Format: cell-based. Particulars: 10 μL spotted on lawn of 10^6 cells of S. Montevideo strain 29N, 24 hour incubation.

As to `CN[C@H](CC(C)C)C(=O)N[C@H]1C(=O)N[C@@H](CC(N)=O)C(=O)N[C@H]2C(=O)N[C@H]3C(=O)N[C@H](C(=O)N[C@H](C(=O)O)c4cc(O)cc(O)c4-c4cc3ccc4O)[C@H](O)c3ccc(c(Cl)c3)Oc3cc2cc(c3O[C@@H]2O[C@H](CO)[C@@H](O)[C@H](O)[C@H]2O[C@H]2C[C@](C)(N)[C@H](O)[C@H](C)O2)Oc2ccc(cc2Cl)[C@H]1O` [Vancomycin, vancomycin, reference compound], the MIC against E. faecalis ATCC 29212 was 2 µg/mL (≈ 1.38 µM); in [1] it was 1 µg/mL (≈ 0.69 µM); in the assay on S. aureus ATCC 29213 it was 1 µg/mL (≈ 0.69 µM); against E. faecalis BAA-2365, at least 256 µg/mL; in the assay with E. faecalis ATCC 51575 it was at least 256 µg/mL; in the assay with E. faecium ATCC 700221, at least 256 µg/mL. Further, the MIC with E. faecium ATCC 2320 was at least 256 µg/mL; in the assay with E. faecium BAA-2318 it was at least 256 µg/mL; against S. aureus 6 (S. aureus 6 (MRSA, clinical isolate)) it was 1 µg/mL (≈ 0.69 µM); against S. aureus 6 (Staphylococcus aureus, MRSA), 1 µg/mL (≈ 0.69 µM); in the assay on S. aureus 14 (S. aureus 14 (MRSA, clinical isolate)) it was 1 µg/mL (≈ 0.69 µM); with S. aureus 14 (Staphylococcus aureus, MRSA), 1 µg/mL (≈ 0.69 µM). For the same compound, the MIC came to 1 µg/mL (≈ 0.69 µM) in the assay on S. aureus 4 (S. aureus 4 (MRSA, clinical isolate)); 1 µg/mL (≈ 0.69 µM) in the assay with S. aureus 4 (Staphylococcus aureus, MRSA); 1 µg/mL (≈ 0.69 µM) against S. aureus 8 (S. aureus 8 (MRSA, clinical isolate)); 1 µg/mL (≈ 0.69 µM) against S. aureus 8 (Staphylococcus aureus, MRSA); 1 µg/mL (≈ 0.69 µM) with S. aureus 2 (S. aureus 2 (MRSA, clinical isolate)); 1 µg/mL (≈ 0.69 µM) with S. aureus 2 (Staphylococcus aureus, MRSA). In addition, the MIC against S. aureus 19 (S. aureus 19 (MRSA, clinical isolate)) amounted to 1 µg/mL (≈ 0.69 µM); in the assay with S. aureus 19 (Staphylococcus aureus, MRSA), 1 µg/mL (≈ 0.69 µM); against S. aureus 10 (S. aureus 10 (MRSA, clinical isolate)) it was 1 µg/mL (≈ 0.69 µM); against S. aureus 10 (Staphylococcus aureus, MRSA) it was 1 µg/mL (≈ 0.69 µM); against S. aureus 12 (S. aureus 12 (MRSA, clinical isolate)), 1 µg/mL (≈ 0.69 µM); against S. aureus 12 (Staphylococcus aureus, MRSA), 1 µg/mL (≈ 0.69 µM). This compound gave an MIC with S. aureus ATCC25923 of 1 µg/mL (≈ 0.69 µM).

As to Polymyxin B [reference compound], the MIC is 0.5 µg/mL in assay [2]; 1 µg/mL in assay [3]; 0.5 µg/mL in assay [4]; 1 µg/mL in assay [5]; over 128 µg/mL in assay [6] (Enterobacter cloacae SBJ-9395); over 128 µg/mL in [6] (Enterobacter cloacae SBJ-9395 (CRE, clinical isolate)). Also, the MIC in assay [7] was at least 256 µg/mL; in assay [8] (Serratia marcescens SBJ-8283), over 128 µg/mL; in [8] (Serratia marcescens SBJ-8283 (CRE, clinical isolate)), over 128 µg/mL; in [9], at least 256 µg/mL; in [10] it was at least 256 µg/mL; in assay [11] (Serratia marcescens SBJ-9047) it was over 128 µg/mL. Also, the MIC in [11] (Serratia marcescens SBJ-9047 (CRE, clinical isolate)) was over 128 µg/mL; against P. aeruginosa ATCC-27853, 1 µg/mL; in the assay on Salmonella Newport #17, 1 µg/mL; in the assay on E. coli O157: H7 EDL933, 0.5 µg/mL; in [12], 0.5 µg/mL; in assay [13] it was 0.5 µg/mL. Also, in the assay on E. coli ATCC 25853, the MIC was determined as 0.5 µg/mL. The “minimum inhibitory concentration to show clear ZI” value in assay [14] came to 4 µg/mL.
